Where a name gives a salt, the structure may show the parent alone.

Holding throughout (type): binding
For assay [1], the target named is T1, Recombinant human integrin αvβ1 (Homo sapiens, UniProt P05556+P06756).
T1 construct: purchased R&D Systems 6579-AV
In words: Solid Phase Receptor Assay (SPRA) for αVβ1 function. To be noted: plate-bound human fibronectin. On the procedure:
B. Solid Phase Receptor Assay (SPRA) for αVβ1 Function
(§1) Wells were washed 3 times with 150 μL TBS+ and then 150 μL of blocking buffer (TBS+ with 1% bovine serum albumin, Sigma A7906) was added. The plate was incubated for 1 hr at 37° C. and then washed 3× with TBS+ buffer. […] Compounds were diluted to 20 μM and 1 μL was added to each well of the plate according to a standard template with each sample repeated in triplicate. After incubation for two hours at room temperature, the plate was washed 3× with 150 μL of TBS+ buffer. To each well, 50 μL of biotinylated anti-αV antibody (R&D Systems, BAF1219) at 1 μg/mL in TBS+/0.1% BSA were added and the plate covered and incubated for 1 hr at room temperature. After washing the plate 3× with 150 μL of TBS+ buffer, 50 μL of streptavidin-conjugated horseradish peroxidase (R&D Systems, DY998) diluted in TBS+ blocking buffer were added to the wells and the plate incubated for 20 min at room temperature. The plate was washed 3× with TBS+ buffer followed by 50 μL of TMB substrate (Sigma, T4444) added to each well in the dark and the plate incubated for 25 min at room temperature. 25 μL of 1.0 M phosphoric acid was added as a stop solution and the plates were read at 450 nm using a Spectramax plate reader.

The target of assay [2] is T2, Recombinant human integrin αVβ6 (Homo sapiens, UniProt P06756+P18564).
T2 construct: purchased R&D Systems 3817-AV
T2 sequence (P06756 31-992 limits assumed): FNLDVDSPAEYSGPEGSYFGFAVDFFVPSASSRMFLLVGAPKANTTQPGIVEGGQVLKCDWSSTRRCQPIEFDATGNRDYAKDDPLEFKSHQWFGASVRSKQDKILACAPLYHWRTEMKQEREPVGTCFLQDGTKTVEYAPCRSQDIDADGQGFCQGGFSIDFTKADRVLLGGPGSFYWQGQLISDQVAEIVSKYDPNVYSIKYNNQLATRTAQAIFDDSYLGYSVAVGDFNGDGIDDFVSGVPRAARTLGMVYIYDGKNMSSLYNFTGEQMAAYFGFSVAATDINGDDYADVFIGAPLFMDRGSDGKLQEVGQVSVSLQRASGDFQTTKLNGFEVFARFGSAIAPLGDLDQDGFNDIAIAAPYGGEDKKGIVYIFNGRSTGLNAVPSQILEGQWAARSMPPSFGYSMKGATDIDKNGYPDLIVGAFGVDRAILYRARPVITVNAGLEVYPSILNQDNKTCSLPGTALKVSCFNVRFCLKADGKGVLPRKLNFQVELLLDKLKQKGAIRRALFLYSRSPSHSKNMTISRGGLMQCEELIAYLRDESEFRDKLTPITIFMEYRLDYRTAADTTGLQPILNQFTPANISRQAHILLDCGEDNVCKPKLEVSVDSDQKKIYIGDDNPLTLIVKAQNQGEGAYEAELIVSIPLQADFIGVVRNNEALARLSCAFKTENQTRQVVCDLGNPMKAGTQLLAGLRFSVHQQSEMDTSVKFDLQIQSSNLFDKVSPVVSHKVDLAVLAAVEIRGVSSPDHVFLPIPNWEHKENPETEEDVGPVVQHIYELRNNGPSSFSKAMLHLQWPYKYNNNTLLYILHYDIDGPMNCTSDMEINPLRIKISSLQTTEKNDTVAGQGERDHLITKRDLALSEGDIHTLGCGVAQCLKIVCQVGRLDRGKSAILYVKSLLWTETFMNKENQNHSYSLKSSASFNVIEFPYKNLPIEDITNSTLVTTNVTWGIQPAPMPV
T2 sequence (P18564 22-707 limits assumed): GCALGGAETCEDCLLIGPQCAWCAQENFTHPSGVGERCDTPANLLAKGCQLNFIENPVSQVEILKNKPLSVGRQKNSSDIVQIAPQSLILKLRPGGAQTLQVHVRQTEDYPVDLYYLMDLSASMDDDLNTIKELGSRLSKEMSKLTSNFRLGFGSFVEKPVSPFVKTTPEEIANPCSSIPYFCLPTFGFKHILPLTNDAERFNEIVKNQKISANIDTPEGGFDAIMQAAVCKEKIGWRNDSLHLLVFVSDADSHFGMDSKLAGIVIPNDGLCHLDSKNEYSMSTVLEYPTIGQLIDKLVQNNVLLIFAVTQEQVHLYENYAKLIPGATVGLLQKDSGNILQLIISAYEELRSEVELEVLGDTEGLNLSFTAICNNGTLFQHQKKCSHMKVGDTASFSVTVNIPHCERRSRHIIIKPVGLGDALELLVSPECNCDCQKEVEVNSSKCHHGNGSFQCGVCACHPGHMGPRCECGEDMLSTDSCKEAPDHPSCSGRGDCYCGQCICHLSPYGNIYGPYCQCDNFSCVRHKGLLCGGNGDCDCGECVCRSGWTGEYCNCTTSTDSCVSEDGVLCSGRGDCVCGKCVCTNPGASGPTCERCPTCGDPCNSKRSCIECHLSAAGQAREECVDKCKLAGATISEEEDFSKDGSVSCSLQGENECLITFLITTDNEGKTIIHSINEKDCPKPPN
In words: Solid Phase Receptor Assay (SPRA) for αVβ6 function. To be noted: plate-bound human LAP. The procedure: E. Solid Phase Receptor Assay (SPRA) for αVβ6 Function
Wells were washed 3 times with 150 μL TBS+, and then 150 μL of blocking buffer (TBS+ with 1% bovine serum albumin, Sigma A7906) was added. The plate was incubated for 1 hr at 37° C., and then washed 3× with TBS+ buffer. […] Compounds were diluted to 20 μM and then 1 μL was added to each well of the plate according to a standard template with each sample repeated in triplicate. After incubation for two hours at room temperature, the plate was washed 3× with 150 μL of TBS+ buffer. To each well, 50 μL of biotinylated anti-αV antibody (R&D Systems, BAF1219) at 0.5 μg/mL in TBS+/0.1% BSA were added and the plate was covered and incubated for 1 hr at room temperature. After washing the plate 3× with 150 μL of TBS+ buffer, 50 μL of streptavidin-conjugated horseradish peroxidase (R&D Systems, DY998) diluted in TBS+ blocking buffer were added to the wells and the plate incubated for 20 min at room temperature. The plate was washed 3× with TBS+ buffer followed by 50 μL of TMB substrate (Sigma T4444) added to each well in the dark and the plate incubated for 10 min at room temperature. 25 μL of 1.0 M phosphoric acid was added as a stop solution and the plates were read at 450 nm using a Spectramax plate reader.

Assay [3] concerns the target T3, Recombinant human integrin αVβ8 (Homo sapiens, UniProt P06756+P26012).
T3 construct: purchased R&D Systems 4135-AV
In words: Solid Phase Receptor Assay for αVβ8 function. The settings on record: plate-bound human LAP; read-out: αVβ8 SPRA IC50. The procedure:
F. Solid Phase Receptor Assay (SFRA) for αVβ8 Function
Wells were washed 3 times with 150 μL TBS+ and then 150 μL of blocking buffer (TBS+ with 1% bovine serum albumin, Sigma A7906) was added. The plate was incubated for 1 hr at 37° C. and then washed 3× with TBS+. […] Compounds were diluted to 20 μM and 1 μL was added to each well of the plate according to a standard template with each sample repeated in triplicate. After incubation for two hours at room temperature, the plate was washed 3× with 150 μL of TBS+. To each well, 50 μL of biotinylated anti-αV antibody (R&D Systems, BAF1219) at 1 μg/mL in TBS+/0.1% BSA were added and the plate was covered and incubated for 1 hr at room temperature. After washing the plate 3× with 150 μL of TBS+ buffer, 50 μL of streptavidin-conjugated horseradish peroxidase (R&D Systems, DY998) diluted in TBS+ blocking buffer were added to the wells and the plate incubated for 20 min at room temperature. The plate was washed 3× with TBS+ followed by 50 μL of TMB substrate (Sigma T4444) added to each well in the dark and the plate incubated for 10 min at room temperature. 25 μL of 1.0 M phosphoric acid was added as a stop solution and the plates were read at 450 nm using a Spectramax plate reader.

Assay [4] concerns the target T4, Recombinant human integrin α5β1 (Homo sapiens, UniProt P05556+P08648).
T4 construct: purchased R&D Systems 3230-A5
Kind of assay: Solid Phase Receptor Assay (SPRA) for α5β1 function. To be noted: plate-bound human fibronectin. On the procedure: A. Solid Phase Receptor Assay (SPRA) for α5β1 Function
as §1, with “μM and then 1 μL” for “μM and 1 μL”, “of biotinylated anti-α5 antibody (R&D” for “of biotinylated anti-αV antibody (R&D”, “(R&D Systems, BAF1864) at 0.5” for “(R&D Systems, BAF1219) at 1”, “BAF1864) at 0.5 μg/mL in” for “BAF1219) at 1 μg/mL in”, “μL of room temperature TMB substrate” for “μL of TMB substrate”

T3 sequence (P06756 31-992 limits assumed): as the sequence (P06756 31-992 limits assumed) above
T3 sequence (P26012 43-684 limits assumed): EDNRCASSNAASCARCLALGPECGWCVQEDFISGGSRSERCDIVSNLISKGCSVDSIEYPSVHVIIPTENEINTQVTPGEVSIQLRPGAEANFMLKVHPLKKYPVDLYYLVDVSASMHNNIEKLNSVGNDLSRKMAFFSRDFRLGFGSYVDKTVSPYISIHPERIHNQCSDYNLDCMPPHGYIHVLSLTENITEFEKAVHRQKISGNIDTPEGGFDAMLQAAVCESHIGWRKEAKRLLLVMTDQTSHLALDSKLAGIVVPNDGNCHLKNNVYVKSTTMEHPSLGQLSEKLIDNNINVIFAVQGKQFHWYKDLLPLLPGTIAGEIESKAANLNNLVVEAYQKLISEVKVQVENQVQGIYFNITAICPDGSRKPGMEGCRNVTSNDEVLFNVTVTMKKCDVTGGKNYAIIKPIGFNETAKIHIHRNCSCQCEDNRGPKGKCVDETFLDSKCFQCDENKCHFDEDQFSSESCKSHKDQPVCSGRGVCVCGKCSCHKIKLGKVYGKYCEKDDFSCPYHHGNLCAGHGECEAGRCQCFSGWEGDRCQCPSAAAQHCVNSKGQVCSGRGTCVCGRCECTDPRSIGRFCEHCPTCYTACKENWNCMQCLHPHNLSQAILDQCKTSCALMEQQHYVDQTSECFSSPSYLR
T1 sequence (P06756 31-992 limits assumed): as the sequence (P06756 31-992 limits assumed) above
T1 sequence (P05556 21-728 limits assumed): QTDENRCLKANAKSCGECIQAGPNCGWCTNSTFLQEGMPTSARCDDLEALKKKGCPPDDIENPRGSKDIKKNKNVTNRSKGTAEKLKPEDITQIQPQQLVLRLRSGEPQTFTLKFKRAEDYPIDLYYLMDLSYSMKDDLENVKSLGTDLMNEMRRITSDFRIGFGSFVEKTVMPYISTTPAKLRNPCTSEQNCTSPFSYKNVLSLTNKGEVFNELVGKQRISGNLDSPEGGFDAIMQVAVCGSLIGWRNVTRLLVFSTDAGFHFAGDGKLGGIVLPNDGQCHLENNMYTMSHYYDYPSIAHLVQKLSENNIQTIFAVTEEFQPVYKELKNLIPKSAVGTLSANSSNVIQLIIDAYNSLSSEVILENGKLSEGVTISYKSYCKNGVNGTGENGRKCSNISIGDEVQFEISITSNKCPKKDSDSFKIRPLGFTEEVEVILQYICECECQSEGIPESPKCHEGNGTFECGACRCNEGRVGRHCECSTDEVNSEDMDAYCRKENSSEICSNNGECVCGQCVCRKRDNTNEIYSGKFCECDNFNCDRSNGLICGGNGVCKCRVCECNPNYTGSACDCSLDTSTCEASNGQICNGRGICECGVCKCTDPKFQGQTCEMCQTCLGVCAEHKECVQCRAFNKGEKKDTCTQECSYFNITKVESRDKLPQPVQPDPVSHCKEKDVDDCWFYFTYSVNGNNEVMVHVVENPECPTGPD
T4 sequence (P08648 42-995 limits assumed): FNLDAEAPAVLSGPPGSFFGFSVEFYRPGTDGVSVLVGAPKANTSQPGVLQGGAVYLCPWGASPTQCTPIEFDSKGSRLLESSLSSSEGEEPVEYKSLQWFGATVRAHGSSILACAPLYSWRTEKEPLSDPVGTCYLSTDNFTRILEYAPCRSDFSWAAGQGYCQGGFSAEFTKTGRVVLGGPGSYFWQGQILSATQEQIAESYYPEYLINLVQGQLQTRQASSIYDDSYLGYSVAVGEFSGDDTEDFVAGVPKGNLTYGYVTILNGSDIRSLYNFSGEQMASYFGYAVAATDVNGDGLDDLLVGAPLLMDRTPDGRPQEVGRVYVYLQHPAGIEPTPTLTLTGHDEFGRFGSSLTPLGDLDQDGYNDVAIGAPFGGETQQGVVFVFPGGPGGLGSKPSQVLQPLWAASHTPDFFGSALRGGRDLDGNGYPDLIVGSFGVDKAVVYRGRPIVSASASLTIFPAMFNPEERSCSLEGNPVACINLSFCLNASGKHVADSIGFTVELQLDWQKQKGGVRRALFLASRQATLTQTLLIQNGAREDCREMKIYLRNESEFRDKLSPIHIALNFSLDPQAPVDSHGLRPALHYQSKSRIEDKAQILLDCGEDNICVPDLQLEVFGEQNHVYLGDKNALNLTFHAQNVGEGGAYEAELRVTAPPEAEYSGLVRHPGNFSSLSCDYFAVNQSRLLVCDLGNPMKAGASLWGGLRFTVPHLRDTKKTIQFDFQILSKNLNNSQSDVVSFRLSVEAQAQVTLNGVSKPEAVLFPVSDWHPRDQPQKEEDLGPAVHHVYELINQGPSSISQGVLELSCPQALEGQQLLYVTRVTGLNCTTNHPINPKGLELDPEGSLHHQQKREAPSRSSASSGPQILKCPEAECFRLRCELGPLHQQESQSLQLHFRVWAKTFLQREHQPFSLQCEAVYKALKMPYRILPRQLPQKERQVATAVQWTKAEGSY
T4 sequence (P05556 21-728 limits assumed): as the sequence (P05556 21-728 limits assumed) above

With `COc1c(C(C)C)cc(C(CC(=O)O)Cc2csc(CCCc3ccc4c(n3)NCCC4)n2)cc1C(C)C` (stereo not shown) [Example 26, 3-(3,5-diisopropyl-4-methoxy-phenyl)-4-[2-[3-(5,6,7,8-tetrahydro-1,8-naphthyridin-2-yl)propyl]thiazol-4-yl]butanoic acid], the IC50 worked out at 0.008 µM in assay [1], 0.33 µM in assay [2], 0.038 µM in assay [3] and 0.061 µM in assay [4].
On to `CC(C)(C)c1cc(C(CC(=O)O)Cc2csc(CCCc3ccc4c(n3)NCCC4)n2)cc(C(C)(C)C)c1` (stereo not shown) [Example 27, 3-(3,5-di-tert-butylphenyl)-4-(2-(3-(5,6,7,8-tetrahydro-1,8-naphthyridin-2-yl)propyl)thiazol-4-yl)butanoic acid], for which the IC50 in assay [1] came out at 0.011 µM; in assay [2], 1 µM; in assay [3] it was 0.055 µM; in assay [4], 0.043 µM.
As for `COc1ccc(C(C)(C)C)cc1C(CC(=O)O)Cc1csc(CCCc2ccc3c(n2)NCCC3)n1` (stereo not shown) [Example 28, 3-(5-(tert-butyl)-2-methoxyphenyl)-4-(2-(3-(5,6,7,8-tetrahydro-1,8-naphthyridin-2-yl)propyl)thiazol-4-yl)butanoic acid], the IC50 in assay [1] was 0.006 µM; in assay [2], 0.31 µM; in assay [3] it was 0.031 µM; in assay [4], 0.025 µM.
For `COc1c(C(C)(C)C)cc(C(CC(=O)O)Cc2csc(CCCc3ccc4c(n3)NCCC4)n2)cc1C(C)(C)C` (stereo not shown) [Example 29, 3-(3,5-di-tert-butyl-4-methoxyphenyl)-4-(2-(3-(5,6,7,8-tetrahydro-1,8-naphthyridin-2-yl)propyl)thiazol-4-yl)butanoic acid], the IC50 came to 0.007 µM in assay [1], 0.45 µM in assay [2], 0.087 µM in assay [3] and 0.04 µM in assay [4].
In the case of `CC(C)(C)c1cc(C(CC(=O)O)Cc2csc(CCCc3ccc4c(n3)NCCC4)n2)cc(C2(C(F)F)CC2)c1` (stereo not shown) [Example 30, 3-[3-tert-butyl-5-[1-(difluoromethyl)cyclopropyl]phenyl]-4-[2-[3-(5,6,7,8-tetrahydro-1,8-naphthyridin-2-yl)propyl]thiazol-4-yl]butanoic acid], the IC50 in assay [1] was found to be 0.005 µM; in assay [2] it was 0.27 µM; in assay [3], 0.025 µM; in assay [4], 0.03 µM.
Turning to `CC(C)(C)c1cc(C(CC(=O)O)Cc2csc(CCCc3ccc4c(n3)NCCC4)n2)cc(C(C)(C)C(F)(F)F)c1` (stereo not shown) [Example 31, 3-[3-tert-butyl-5-(2,2,2-trifluoro-1,1-dimethyl-ethyl)phenyl]-4-[2-[3-(5,6,7,8-tetrahydro-1,8-naphthyridin-2-yl)propyl]thiazol-4-yl]butanoic acid], the IC50 came to 0.008 µM in assay [1], 1.7 µM in assay [2], 0.076 µM in assay [3] and 0.066 µM in assay [4].
Turning to `COCC1(c2cc(C(CC(=O)O)Cc3csc(CCCc4ccc5c(n4)NCCC5)n3)cc(C(C)(C)C)c2)CCOCC1` (stereo not shown) [Example 32, 3-[3-tert-butyl-5-[4-(methoxymethyl)tetrahydropyran-4-yl]phenyl]-4-[2-[3-(5,6,7,8-tetrahydro-1,8-naphthyridin-2-yl)propyl]thiazol-4-yl]butanoic acid], the IC50 in assay [1] turned out to be 0.007 µM; in assay [2], 0.13 µM; in assay [3], 0.014 µM; in assay [4], 0.037 µM.
For the molecule `CC(C)(C)c1ccc(C#N)c(C(CC(=O)O)Cc2csc(CCCc3ccc4c(n3)NCCC4)n2)c1` (stereo not shown) [Example 33, 3-(5-tert-butyl-2-cyano-phenyl)-4-[2-[3-(5,6,7,8-tetrahydro-1,8-naphthyridin-2-yl)propyl]thiazol-4-yl]butanoic acid], the IC50 in assay [1] was determined as 0.002 µM; in assay [2], 0.15 µM; in assay [3], 0.008 µM; in assay [4] it was 0.0007 µM.
Take `CC(C)(C)c1ccc(Br)c(C(CC(=O)O)Cc2csc(CCCc3ccc4c(n3)NCCC4)n2)c1` (stereo not shown) [Example 34]: the IC50 in assay [1] amounted to 0.004 µM; in assay [2], 3.4 µM; in assay [3], 0.14 µM; in assay [4], 0.069 µM.
With `COc1ccc(C(F)(F)F)cc1C(CC(=O)O)Cc1csc(CCCc2ccc3c(n2)NCCC3)n1` (stereo not shown) [Example 35, 3-[2-methoxy-5-(trifluoromethyl)phenyl]-4-[2-[3-(5,6,7,8-tetrahydro-1,8-naphthyridin-2-yl)propyl]thiazol-4-yl]butanoic acid], the IC50 amounted to 0.005 µM in assay [1], 0.2 µM in assay [2], 0.051 µM in assay [3] and 0.088 µM in assay [4].
With `COc1ccc(C2(C(F)F)CC2)cc1C(CC(=O)O)Cc1csc(CCCc2ccc3c(n2)NCCC3)n1` (stereo not shown) [Example 36, 3-(5-(1-(difluoromethyl)cyclopropyl)-2-methoxyphenyl)-4-(2-(3-(5,6,7,8-tetrahydro-1,8-naphthyridin-2-yl)propyl)thiazol-4-yl)butanoic acid], the IC50 in assay [1] was found to be 0.002 µM; in assay [2], 0.12 µM; in assay [3], 0.029 µM; in assay [4], 0.007 µM.
Take `COc1ccc(C2=CCOCC2)cc1C(CC(=O)O)Cc1csc(CCCc2ccc3c(n2)NCCC3)n1` (stereo not shown) [Example 37, 3-[5-(3,6-dihydro-2H-pyran-4-yl)-2-methoxy-phenyl]-4-[2-[3-(5,6,7,8-tetrahydro-1,8-naphthyridin-2-yl)propyl]thiazol-4-yl]butanoic acid]: the IC50 in assay [1] is 0.003 µM; in assay [2], 0.081 µM; in assay [3] it was 0.083 µM; in assay [4], 0.025 µM.
For `COc1ccc(C2=CCOCC2)cc1[C@H](CC(=O)O)Cc1csc(CCCc2ccc3c(n2)NCCC3)n1` [Example 37A, (S)-3-(5-(3,6-dihydro-2H-pyran-4-yl)-2-methoxyphenyl)-4-(2-(3-(5,6,7,8-tetrahydro-1,8-naphthyridin-2-yl)propyl)thiazol-4-yl)butanoic acid trifluoroacetate], the IC50 in assay [1] amounted to 0.0009 µM; in assay [2], 0.031 µM; in assay [3], 0.043 µM; in assay [4], 0.017 µM.

For the origin of these results see patent publication US20210284638A1 (Saint Louis University, priority 2018, published 2021).
